Test results reported in the supplement of paper PMC13380429.

Columns and labels:
Settings in all cases: 72 h
Caco-2 [1] = assay: cell viability relative to DMSO; higher = less toxic
Calu-3 [2] = assay: as above
HepG2 [3] = assay: as above
U2OS [4] = assay: as above
Vero E6 [5] = assay: as above
Caco-2 [6] = assay: relative viability EC50 (midpoint between 100% and the lowest measured viability); higher = less toxic
Calu-3 [7] = assay: as above
HepG2 [8] = assay: as above
U2OS [9] = assay: as above
Vero E6 [10] = assay: as above
Caco-2 [11] = assay: drug sensitivity score (DSS) for viability; higher = more toxic; extreme values may be limits of the assay
Calu-3 [12] = assay: as above
HepG2 [13] = assay: as above
U2OS [14] = assay: as above
Vero E6 [15] = assay: as above

SMILES | cell viability (Caco-2 [1]; 1 nM) [%] | cell viability (Caco-2 [1]; 10 nM) [%] | cell viability (Caco-2 [1]; 100 nM) [%] | cell viability (Caco-2 [1]; 1000 nM) [%] | cell viability (Caco-2 [1]; 10000 nM) [%] | cell viability (Calu-3 [2]; 1 nM) [%] | cell viability (Calu-3 [2]; 10 nM) [%] | cell viability (Calu-3 [2]; 100 nM) [%] | cell viability (Calu-3 [2]; 1000 nM) [%] | cell viability (Calu-3 [2]; 10000 nM) [%] | cell viability (HepG2 [3]; 1 nM) [%] | cell viability (HepG2 [3]; 10 nM) [%] | cell viability (HepG2 [3]; 100 nM) [%] | cell viability (HepG2 [3]; 1000 nM) [%] | cell viability (HepG2 [3]; 10000 nM) [%] | cell viability (U2OS [4]; 1 nM) [%] | cell viability (U2OS [4]; 10 nM) [%] | cell viability (U2OS [4]; 100 nM) [%] | cell viability (U2OS [4]; 1000 nM) [%] | cell viability (U2OS [4]; 10000 nM) [%] | cell viability (Vero E6 [5]; 1 nM) [%] | cell viability (Vero E6 [5]; 10 nM) [%] | cell viability (Vero E6 [5]; 100 nM) [%] | cell viability (Vero E6 [5]; 1000 nM) [%] | cell viability (Vero E6 [5]; 10000 nM) [%] | relative viability EC50 (Caco-2 [6]) [µM] | relative viability EC50 (Calu-3 [7]) [µM] | relative viability EC50 (HepG2 [8]) [µM] | relative viability EC50 (U2OS [9]) [µM] | relative viability EC50 (Vero E6 [10]) [µM] | drug sensitivity score (Caco-2 [11]) | drug sensitivity score (Calu-3 [12]) | drug sensitivity score (HepG2 [13]) | drug sensitivity score (U2OS [14]) | drug sensitivity score (Vero E6 [15])
COc1ccc(CCNCc2ccc(OCc3ccc(Cl)nc3)c(OC)c2)cc1OC [SBE-13] | 90.3 | 94.3 | 92.1 | 98.2 | 95.3 | 108 | 97.8 | 93.3 | 99.1 | 93.8 | 107 | 105 | 102 | 96.1 | 94 | 98 | 103 | 102 | 98.8 | 95.2 | 107 | 104 | 101 | 98.5 | 97.3 | > 10 | > 10 | > 10 | > 10 | > 10 | 0 | 0 | 0 | 0 | 0
NC(=O)c1ccc2[nH]ccc2c1 [SD-169] | 94.7 | 90.8 | 100 | 92.9 | 99.2 | 103 | 87.6 | 98.5 | 99.6 | 101 | 93.7 | 92.4 | 102 | 102 | 83.4 | 104 | 104 | 102 | 98.9 | 101 | 98.8 | 99.1 | 92.6 | 97.6 | 89.8 | > 10 | > 10 | > 10 | > 10 | > 10 | 0 | 0 | 0.3 | 0 | 0
O=C(O)CCc1cc(C(=O)c2ccc(OC3CCCC3)cc2O)ccc1OCc1ccc2c(O)noc2c1 [T-5224] | 106 | 99.2 | 101 | 93.6 | 94 | 97.3 | 106 | 92.3 | 93.9 | 100 | 97.9 | 93 | 105 | 102 | 96.4 | 97.6 | 99.2 | 95.9 | 99.9 | 96.4 | 93.9 | 101 | 97.2 | 102 | 94.9 | > 10 | > 10 | > 10 | > 10 | > 10 | 0 | 0 | 0 | 0 | 0
O=[N+]([O-])c1cn2c(n1)OC[C@@H](OCc1ccc(-c3ccc(OC(F)(F)F)cc3)nc1)C2 [TBA-354] | 99.5 | 95.4 | 103 | 92.1 | 92.9 | 101 | 103 | 106 | 96.1 | 98.5 | 92.9 | 108 | 89.4 | 110 | 105 | 98.3 | 98.8 | 102 | 100 | 98.8 | 96.7 | 101 | 93.6 | 99 | 104 | > 10 | > 10 | > 10 | > 10 | > 10 | 0 | 0 | 0 | 0 | 0
COc1cc(OC)cc(C(=O)NNC(=O)Nc2cccc3ccccc23)c1 [TC-O-9311] | 96.3 | 112 | 101 | 102 | 88 | 84.2 | 92.1 | 93.6 | 97.8 | 107 | 100 | 101 | 92.3 | 90.9 | 98.7 | 99 | 100 | 98.3 | 101 | 98.4 | 102 | 102 | 94.9 | 94.1 | 96 | > 10 | > 10 | > 10 | > 10 | > 10 | 0 | 0 | 0 | 0 | 0
CC(C)C(=O)SCCCCC[C@H](NC(=O)OC(C)(C)C)C(=O)NC12CC3CC(CC(C3)C1)C2 [TCS-HDAC6-20b] | 97.7 | 96.9 | 95.5 | 102 | 103 | 101 | 93.3 | 95.6 | 108 | 85.3 | 101 | 99.3 | 101 | 96.5 | 105 | 101 | 102 | 106 | 98.4 | 98.4 | 96.5 | 96.2 | 97 | 98.9 | 113 | > 10 | > 10 | > 10 | > 10 | > 10 | 0 | 0.1 | 0 | 0 | 0
